PubChem BioAssay AID1996
Values after ≈ are worked out from the molar mass of the structure shown.

Details: buffer; pH 7.4; 200.0 µM

SMILES | solubility kinetic
COc1cc(C(=O)Nc2cccc(NC(=O)c3cccs3)c2)cc(OC)c1OC | 13.5 µg/mL (≈ 32.7 µM)
C[n+]1ccccc1/C=N/O.[Cl-] | > 25.9 µg/mL
O=C(Nc1nc2cc3c(cc2s1)OCO3)c1ccco1 | 1 µg/mL (≈ 3.47 µM)
Cc1ccsc1C(=O)OCC(=O)c1cc(C)n(C)c1C | 3.7 µg/mL (≈ 12.7 µM)
CN(C)c1nc(-c2cccs2)cc(C(F)(F)F)c1C#N | 0.3 µg/mL (≈ 1.01 µM)
Cn1c(=O)c2c(ncn2CC(O)CO)n(C)c1=O (stereo not drawn) | > 38.1 µg/mL
Cc1nnc(SC(C)C(=O)NC2CCCCC2C)s1 (stereo not drawn) | > 44.9 µg/mL
Cl.NCCS | > 17 µg/mL
O=C(Nc1ccc(F)cc1F)c1cc(Cl)sc1Cl | < 0.7 µg/mL
CCCCC(CC)C1OCC(CN2CCCCC2)O1 (stereo not drawn) | 4.3 µg/mL (≈ 16 µM)
c1cnc2ccc(-c3ccc4ncccc4c3)cc2c1 | 7.7 µg/mL (≈ 30 µM)
CCc1ccc(-c2csc3nc[nH]c(=O)c23)cc1 | 12 µg/mL (≈ 46.8 µM)
Cc1cc(NC(=O)c2cccnc2)ccc1Br | 40.2 µg/mL (≈ 138 µM)
S=C(NCCc1ccccc1)NCCc1cnc[nH]1 | > 41.2 µg/mL
COc1ccc(NC(=S)N(Cc2cccnc2)Cc2ccco2)cc1 | 44.8 µg/mL (≈ 127 µM)
CCOc1ccc(NC(=O)COC(=O)Cc2ccsc2)cc1 | 25.1 µg/mL (≈ 78.6 µM)
O=C(NCc1ccco1)C1Cc2cc(Cl)ccc2O1 (stereo not drawn) | > 41.7 µg/mL
O=C(NCc1cccnc1)c1ccc(NS(=O)(=O)c2cccc([N+](=O)[O-])c2)cc1 | > 61.9 µg/mL
C(=N\N1CCOCC1)/c1ccsc1.O=P(O)(O)O | > 44.1 µg/mL

SMILES | solubility kinetic
O=C1OC(c2ccc(Br)cc2)=N/C1=C\c1ccco1 | 2.4 µg/mL (≈ 7.54 µM)
CC1(C)Cc2c(C#N)c(SCC(=O)O)nc(N3CCOCC3)c2CO1 | 52.7 µg/mL (≈ 145 µM)
CCOc1ccc(/C=N/NC(=O)Cn2ccnc2C)cc1 | > 42.9 µg/mL
O=C(Nc1c[nH]c(=O)[nH]c1=O)c1cc([N+](=O)[O-])cc([N+](=O)[O-])c1 | 16.7 µg/mL (≈ 52 µM)
Nc1cc(Cl)ccc1N1CCCCC1 | 0.6 µg/mL (≈ 2.85 µM)
Cc1ccc(CN2C(=O)c3ccccc3NC2c2ccccn2)cc1 (stereo not drawn) | > 49.4 µg/mL
CC(=O)N/C(=N/c1nc(C)cc(C)n1)Nc1cccc(C)c1 | 22.2 µg/mL (≈ 74.7 µM)
COc1ccc(C=O)cc1CSc1ccccn1 | 38.2 µg/mL (≈ 147 µM)
COc1cccc(CNC(=O)c2ccc(C3SCCS3)cc2)c1 | 10.5 µg/mL (≈ 30.4 µM)
Cc1ccnc(NC(=O)CNC(=O)c2ccc3c(c2)OCO3)c1 | 22.3 µg/mL (≈ 71.2 µM)
CC(=O)O[C@H](CC(=O)O)C[N+](C)(C)C.[Cl-] | > 36 µg/mL
CCN(CC)c1ccc(NC(=O)CCCCC(=O)Nc2ccc(N(CC)CC)cc2)cc1 | 0.4 µg/mL (≈ 0.912 µM)
NC(=O)C1CCN(CC(=O)Nc2nccs2)CC1 | 38.4 µg/mL (≈ 143 µM)
COc1cccc(-c2nc(-c3ccc(Br)o3)no2)c1 | 0.5 µg/mL (≈ 1.56 µM)
COc1ccc(Nc2cc(C)nc3c(C)cccc23)cc1OC | > 46.3 µg/mL
COc1cccc(Nc2nc3cc(OC)ccc3cc2C#N)c1 | 0.2 µg/mL (≈ 0.655 µM)
CCOc1ccc(C2C(C#N)=C(N)Oc3cc(C)[nH]c(=O)c32)cc1OC (stereo not drawn) | > 53 µg/mL
N#Cc1c(-c2ccc3c(c2)OCO3)cc[nH]c1=O | 2.3 µg/mL (≈ 9.57 µM)

The remaining lines, values ahead:

solubility kinetic | SMILES
> 49.2 µg/mL | COC(=O)CN(C#N)c1nc(NCc2ccccc2)nc(OC)n1
38.6 µg/mL (≈ 137 µM) | CCN1CSC(=S)N(Cc2ccc(OC)cc2)C1
27.8 µg/mL (≈ 89.6 µM) | COc1ccc(NC(=O)N2CCCC(c3ccccc3)C2)cc1 (stereo not drawn)
36.9 µg/mL (≈ 135 µM) | Cc1ccccc1CC(=O)Nc1cc(C(C)(C)C)on1
7.7 µg/mL (≈ 24.6 µM) | CCOC(=O)c1ccc2c(c1)N(C)C(=O)c1ccccc1S2
> 51.5 µg/mL | CC1CCC2(CC1)NC(=O)N(CC(=O)NCCc1ccccc1)C2=O (stereo not drawn)
> 44.4 µg/mL | Cc1c(C(=O)C(=O)NCc2ccco2)c2ccccc2n1C
46.3 µg/mL (≈ 147 µM) | Cc1ccc(N2C(=O)CCC(C(=O)O)C2c2cccs2)cc1 (stereo not drawn)
7.1 µg/mL (≈ 21.4 µM) | Cc1cccc(NC(=O)c2cccc(NC(=O)c3ccccc3)c2)n1
27.2 µg/mL (≈ 124 µM) | CC1CC(C(=O)Nc2ccccc2)C(=O)O1 (stereo not drawn)
11.9 µg/mL (≈ 38.3 µM) | COc1cccc(C(=O)Nc2ccccc2C(=O)NC2CC2)c1
> 49 µg/mL | CN(C)S(=O)(=O)N1CCC(CO)(CCc2ccccc2)CC1
3.2 µg/mL (≈ 10.5 µM) | O=C(NCc1cccc(Cl)c1)c1ccc2c(c1)OCCO2
2.4 µg/mL (≈ 7.31 µM) | CCN(CC)c1ccc(C(=O)OCC(=O)Nc2ncccn2)cc1
4.1 µg/mL (≈ 10.3 µM) | NS(=O)(=O)c1ccc(N2CCN(S(=O)(=O)Cc3ccccc3)CC2)nc1
> 58 µg/mL | CC1CCCCN1C(=O)c1cc(S(=O)(=O)N2CCOCC2)ccc1Cl (stereo not drawn)
> 40.2 µg/mL | Cn1ccnc1C(O)(c1ccccc1)c1nccn1C
< 0.3 µg/mL | O=C(NCc1ccccc1Cl)c1cc(C(=O)C2CC2)c[nH]1
> 52.8 µg/mL | Cc1noc(C)c1C(=O)NCC(=O)Nc1ccccc1Br
> 45.2 µg/mL | O=C(NCCCNC(=O)c1ccccn1)c1ccc(F)cc1
> 45 µg/mL | CCn1cc(S(=O)(=O)Nc2ccc(C)c(Cl)c2)cn1
> 35.2 µg/mL | CCc1ccc(NC(=S)N2CCCC2)cc1
> 46.6 µg/mL | Cc1ccc(C(=O)Nc2cccnc2N2CCN(C)CC2)cc1
40.7 µg/mL (≈ 136 µM) | CN(c1cccc2cccnc12)S(=O)(=O)c1ccccc1
8.3 µg/mL (≈ 23.8 µM) | CCN1CCc2nc3ccccc3c(C(=O)Nc3ccc(F)cc3)c2C1
> 36.9 µg/mL | CC1(C)CN(C(Cc2ccccc2)C(N)=O)C1=O (stereo not drawn)

solubility kinetic | SMILES
> 35.3 µg/mL | O=C1CS/C(=N\NC(=O)c2ccccc2)N1
10.7 µg/mL (≈ 30.4 µM) | CCN(CC)c1cc(C)c2cc(NC(=O)c3ccccc3F)ccc2n1
> 35.3 µg/mL | CCNC(=O)NC(=O)CN(C)c1ccccc1
44.2 µg/mL (≈ 130 µM) | O=C(NCCCNC(=O)c1ccco1)c1ccc(Cl)c(Cl)c1
> 40.8 µg/mL | O=C(NOCc1ccccc1)c1ccc([N+](=O)[O-])cc1
> 43.3 µg/mL | Cc1nc2ccccc2c(N)c1C(=O)/C=C/c1ccccc1
9.4 µg/mL (≈ 37.7 µM) | CC(=O)c1sc(=S)n(-c2ccccc2)c1C
39.3 µg/mL (≈ 138 µM) | O=C(NCc1ccc(F)cc1)N1CCc2ccccc2C1
> 70.4 µg/mL | O=C(NCCN1CCN(C(=O)c2cccc(OC(F)F)c2)CC1)c1cccc(OC(F)F)c1
3.1 µg/mL (≈ 11.3 µM) | CC(=O)c1ccc(Sc2ccccc2)c([N+](=O)[O-])c1
> 46.9 µg/mL | O=C(/C=C/c1ccco1)Nc1ccc(CN2CCOCC2)cc1
36 µg/mL (≈ 124 µM) | CN(C)c1c(F)cc(C(=O)NCc2ccccc2)cc1F
> 53.2 µg/mL | CCCC(=O)Nc1ccc2c(c1)nc(CCNC(=O)c1ccco1)n2C
> 45.5 µg/mL | O=C(CSc1cccc[n+]1[O-])C12CC3CC(CC(C3)C1)C2
10.9 µg/mL (≈ 29.8 µM) | O=C(Nc1ccccc1)N1CCCN(c2c(Cl)cncc2Cl)CC1
13.9 µg/mL (≈ 40.3 µM) | CCc1ccccc1NC(=S)N(Cc1cccs1)C1CCCC1
3.7 µg/mL (≈ 11.4 µM) | O=C(Cc1ccccc1)N1CCN(c2ccc([N+](=O)[O-])cc2)CC1
22 µg/mL (≈ 93.5 µM) | NC(=O)C1CC12c1ccccc1-c1ccccc12 (stereo not drawn)
> 47.5 µg/mL | O=C(c1ccc(S(=O)(=O)Nc2ccccc2)cc1)N1CCC1
> 59 µg/mL | COc1ccc(-c2nc(=S)c3c(n2Cc2cccnc2)CC(C)(C)OC3)cc1
31.8 µg/mL (≈ 103 µM) | CCN(CC)C(=O)c1c(-c2ccccc2)oc2ccc(O)cc12
41.6 µg/mL (≈ 144 µM) | CC1(C)CC2CC(C)(CN2C(=S)Nc2ccccc2)C1 (stereo not drawn)
> 45.7 µg/mL | CCOC(=O)N1CCC(NC(=O)CCc2ccccc2)CC1
< 0.3 µg/mL | COc1cc(NC(C)=O)ccc1NC(=O)c1cc2ccccc2o1
7.4 µg/mL (≈ 29.2 µM) | COc1ccccc1CNc1ccc2c(c1)CCC2
